Laboratory results from ChEMBL document CHEMBL4680174, “Synthesis, biological evaluation and in silico modeling of novel integrase strand transfer inhibitors (INSTIs)” (Eur J Med Chem, 2020).
In brackets after ≈: the same amount, converted by molar mass.

Columns and labels:
[1] = tested on: Human immunodeficiency virus 1; assay: Antiviral activity against HIV1 3B infected in human CEM-SS cells assessed as reduction in cytopathic effect after 4 days; assay type: functional, organism-based
[2] = Thermodynamic solubility of compound in water at 2 mg after 24 hrs; assay type: physicochemical; details: read-out: Therm_solubility
[3] = Cytotoxicity against human CEM-SS cells assessed as reduction in cell viability by XTT assay; assay type: cell-based
[4] = Thermodynamic solubility of compound in plON buffer at 2 mg after 24 hrs; assay type: physicochemical; details: read-out: Therm_solubility
[5] = Selectivity index, ratio of CC50 for human CEM-SS cells to EC50 for Antiviral activity against HIV1 3B infected in human CEM-SS cells; assay type: toxicity, cell-based; details: for selectivity ratio: CEM-SS cells, read-out: Ratio CC50/EC50
[6] = Tmax in Sprague-Dawley rat at 1 mg/kg, iv up to 24 hrs by LC-MS/MS analysis; assay type: ADME, organism-based; details: in vivo
[7] = Stability in human liver microsomes assessed as parent compound remaining at 1 uM up to 24 hrs by LC-MS/MS analysis; assay type: ADME, Microsome; details: read-out: Stabilty
[8] = Stability in rat liver microsomes assessed as parent compound remaining at 1 uM up to 24 hrs by LC-MS/MS analysis; assay type: ADME, Microsome; details: read-out: Stabilty
[9] = Oral bioavailability in Sprague-Dawley rat at 5 mg/kg up to 24 hrs by LC-MS/MS analysis; assay type: ADME, organism-based; details: in vivo
Cytochrome P450 3A4 = Cytochrome P450 3A4 (Homo sapiens, UniProt P08684); assay: Inhibition of CYP3A4 in human liver microsomes using midazolam as substrate incubated for 30 mins by LC-MS/MS analysis; assay type: ADME
[10] = Drug concentration in Sprague-Dawley rat at 1 mg/kg, iv after 8 hrs by LC-MS/MS analysis; assay type: ADME, organism-based; details: in vivo, read-out: Drug uptake
Cytochrome P450 2C8 = biological target: T1, Cytochrome P450 2C8 (Homo sapiens, UniProt P10632); assay: Inhibition of CYP2C8 in human liver microsomes using amodiaquine as substrate incubated for 30 mins by LC-MS/MS analysis; assay type: ADME
T1 sequence (P10632 whole entry): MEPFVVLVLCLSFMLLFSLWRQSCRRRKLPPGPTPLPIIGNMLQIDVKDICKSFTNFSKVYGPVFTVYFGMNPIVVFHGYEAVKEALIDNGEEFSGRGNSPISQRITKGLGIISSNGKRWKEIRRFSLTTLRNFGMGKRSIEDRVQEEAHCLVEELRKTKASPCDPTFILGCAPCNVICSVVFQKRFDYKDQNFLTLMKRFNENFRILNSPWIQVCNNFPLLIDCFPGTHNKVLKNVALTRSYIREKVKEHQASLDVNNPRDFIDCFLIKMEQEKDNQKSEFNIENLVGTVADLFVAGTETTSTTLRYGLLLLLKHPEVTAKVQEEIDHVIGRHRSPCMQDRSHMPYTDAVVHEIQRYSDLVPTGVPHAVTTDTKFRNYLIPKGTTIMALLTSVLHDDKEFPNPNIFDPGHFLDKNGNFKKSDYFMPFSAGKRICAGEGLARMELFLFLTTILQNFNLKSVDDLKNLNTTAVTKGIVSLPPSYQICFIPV

Cytochrome P450 2C9 = Cytochrome P450 2C9 (Homo sapiens, UniProt P11712); assay: Inhibition of CYP2C9 in human liver microsomes using tolbutamide as substrate incubated for 30 mins by LC-MS/MS analysis; assay type: ADME
Cytochrome P450 2D6 = Cytochrome P450 2D6 (Homo sapiens, UniProt P10635); assay: Inhibition of CYP2D6 in human liver microsomes using dextromethorphan as substrate incubated for 30 mins by LC-MS/MS analysis; assay type: ADME
[11] = Elimination rate constant Sprague-Dawley rat at 5 mg/kg, po up to 24 hrs by LC-MS/MS analysis; assay type: ADME, organism-based; details: in vivo
[12] = Drug concentration in Sprague-Dawley rat at 5 mg/kg, po after 8 hrs by LC-MS/MS analysis; assay type: ADME, organism-based; details: in vivo, read-out: Drug uptake
Cytochrome P450 2C19 = Cytochrome P450 2C19 (Homo sapiens, UniProt P33261); assay: Inhibition of CYP2C19 in human liver microsomes using S-mephenytoin as substrate incubated for 30 mins by LC-MS/MS analysis; assay type: ADME
[13] = Drug concentration in Sprague-Dawley rat at 5 mg/kg, po after 24 hrs by LC-MS/MS analysis; assay type: ADME, organism-based; details: in vivo, read-out: Drug uptake
[14] = Protein binding in rat plasma at 1 uM after 4 hrs by LC-MS/MS analysis; assay type: ADME, cell-free; details: read-out: PPB (converted)
[15] = Stability in human plasma assessed as parent compound remaining at 1 uM up to 24 hrs by LC-MS/MS analysis; assay type: ADME, cell-free; details: read-out: Stabilty
[16] = Stability in rat plasma assessed as parent compound remaining at 1 uM up to 24 hrs by LC-MS/MS analysis; assay type: ADME, cell-free; details: read-out: Stabilty
[17] = Tmax in Sprague-Dawley rat at 5 mg/kg, po up to 24 hrs by LC-MS/MS analysis; assay type: ADME, organism-based; details: in vivo
Cytochrome P450 1A2 = biological target: T2, Cytochrome P450 1A2 (Homo sapiens, UniProt P05177); assay: Inhibition of CYP1A2 in human liver microsomes using phenacetin as substrate incubated for 30 mins by LC-MS/MS analysis; assay type: ADME
T2 sequence (P05177 whole entry): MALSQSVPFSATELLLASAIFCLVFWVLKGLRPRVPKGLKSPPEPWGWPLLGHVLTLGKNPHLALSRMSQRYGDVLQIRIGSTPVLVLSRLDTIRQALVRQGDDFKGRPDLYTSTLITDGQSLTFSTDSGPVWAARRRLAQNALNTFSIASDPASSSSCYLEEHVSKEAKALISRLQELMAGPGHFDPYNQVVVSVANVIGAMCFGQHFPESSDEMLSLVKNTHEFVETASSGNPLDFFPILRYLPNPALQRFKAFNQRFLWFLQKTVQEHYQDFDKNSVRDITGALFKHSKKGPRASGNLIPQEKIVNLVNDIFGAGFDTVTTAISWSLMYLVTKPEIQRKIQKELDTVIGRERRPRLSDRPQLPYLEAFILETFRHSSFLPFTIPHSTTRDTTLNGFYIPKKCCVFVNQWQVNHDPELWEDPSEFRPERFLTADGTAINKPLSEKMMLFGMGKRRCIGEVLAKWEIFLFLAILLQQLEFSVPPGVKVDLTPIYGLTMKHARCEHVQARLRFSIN

[18] = Drug concentration in Sprague-Dawley rat at 1 mg/kg, iv after 24 hrs by LC-MS/MS analysis; assay type: ADME, organism-based; details: in vivo, read-out: Drug uptake
[19] = Elimination rate constant Sprague-Dawley rat at 1 mg/kg, iv up to 24 hrs by LC-MS/MS analysis; assay type: ADME, organism-based; details: in vivo
[20] = Protein binding in human plasma at 1 uM after 4 hrs by LC-MS/MS analysis; assay type: ADME, cell-free; details: read-out: PPB
[21] = Human immunodeficiency virus 1, 3B, CEM-SS, 96 h

Sequence of Cytochrome P450 2D6 (P10635 whole entry): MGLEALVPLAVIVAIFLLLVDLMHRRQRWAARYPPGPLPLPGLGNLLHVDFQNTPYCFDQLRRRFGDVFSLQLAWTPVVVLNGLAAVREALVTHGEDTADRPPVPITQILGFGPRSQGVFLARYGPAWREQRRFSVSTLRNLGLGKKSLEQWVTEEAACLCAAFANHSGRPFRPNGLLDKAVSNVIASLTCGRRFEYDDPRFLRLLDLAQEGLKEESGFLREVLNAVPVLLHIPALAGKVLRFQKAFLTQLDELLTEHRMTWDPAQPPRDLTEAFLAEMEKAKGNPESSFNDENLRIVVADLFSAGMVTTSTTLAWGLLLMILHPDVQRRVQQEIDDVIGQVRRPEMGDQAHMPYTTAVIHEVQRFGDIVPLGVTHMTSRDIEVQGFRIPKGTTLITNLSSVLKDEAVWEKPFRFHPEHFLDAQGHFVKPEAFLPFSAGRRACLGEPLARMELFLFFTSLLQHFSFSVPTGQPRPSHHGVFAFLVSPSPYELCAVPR
Sequence of Cytochrome P450 2C9 (P11712 whole entry): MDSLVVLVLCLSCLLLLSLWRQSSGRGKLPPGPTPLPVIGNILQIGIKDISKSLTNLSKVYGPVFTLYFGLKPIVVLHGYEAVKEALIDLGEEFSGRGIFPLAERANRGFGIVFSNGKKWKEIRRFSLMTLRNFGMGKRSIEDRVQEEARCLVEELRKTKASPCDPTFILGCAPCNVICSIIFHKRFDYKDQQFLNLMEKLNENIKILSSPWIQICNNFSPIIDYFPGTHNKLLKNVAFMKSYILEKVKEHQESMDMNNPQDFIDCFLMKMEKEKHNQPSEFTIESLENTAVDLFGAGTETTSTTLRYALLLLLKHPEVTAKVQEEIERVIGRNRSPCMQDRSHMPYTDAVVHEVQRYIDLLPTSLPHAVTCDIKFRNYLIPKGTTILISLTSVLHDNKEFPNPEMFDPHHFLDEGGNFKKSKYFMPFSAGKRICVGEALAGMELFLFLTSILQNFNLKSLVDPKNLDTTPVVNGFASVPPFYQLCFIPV
Sequence of Cytochrome P450 2C19 (P33261 whole entry): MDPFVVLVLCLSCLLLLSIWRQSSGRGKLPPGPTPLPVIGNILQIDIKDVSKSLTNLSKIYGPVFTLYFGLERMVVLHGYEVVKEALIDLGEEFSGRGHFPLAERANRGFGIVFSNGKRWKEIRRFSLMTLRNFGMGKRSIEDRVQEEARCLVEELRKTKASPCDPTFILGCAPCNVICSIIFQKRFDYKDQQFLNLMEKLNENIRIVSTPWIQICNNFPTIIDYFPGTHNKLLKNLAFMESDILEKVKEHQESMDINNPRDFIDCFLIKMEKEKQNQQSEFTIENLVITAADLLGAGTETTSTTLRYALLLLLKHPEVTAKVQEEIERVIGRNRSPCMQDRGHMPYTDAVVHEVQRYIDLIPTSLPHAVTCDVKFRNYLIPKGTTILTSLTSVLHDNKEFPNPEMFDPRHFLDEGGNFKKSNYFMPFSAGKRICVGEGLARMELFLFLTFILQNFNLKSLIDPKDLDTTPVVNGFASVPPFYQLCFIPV
Sequence of Cytochrome P450 3A4 (P08684 whole entry): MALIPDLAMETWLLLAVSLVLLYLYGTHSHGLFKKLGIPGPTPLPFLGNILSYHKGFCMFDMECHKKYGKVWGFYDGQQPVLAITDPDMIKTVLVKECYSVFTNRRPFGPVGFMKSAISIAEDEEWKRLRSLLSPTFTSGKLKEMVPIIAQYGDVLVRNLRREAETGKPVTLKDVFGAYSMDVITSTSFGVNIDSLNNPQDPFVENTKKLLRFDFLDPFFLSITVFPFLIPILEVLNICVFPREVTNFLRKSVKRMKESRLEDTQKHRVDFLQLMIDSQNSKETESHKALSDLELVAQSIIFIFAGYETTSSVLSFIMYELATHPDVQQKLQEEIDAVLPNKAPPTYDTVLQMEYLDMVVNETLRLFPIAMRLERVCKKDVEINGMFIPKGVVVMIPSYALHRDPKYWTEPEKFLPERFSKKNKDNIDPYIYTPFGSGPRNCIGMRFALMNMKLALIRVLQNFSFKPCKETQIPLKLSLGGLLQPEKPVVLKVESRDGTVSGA

For `C[C@H]1CO[C@@H]2Cn3cc(C(=O)NCc4nn(C)c(Cl)c4Cl)c(=O)c(O)c3C(=O)N12`, the EC50 [1, 21] was 0.59 nM, the solubility thermodynamic at 24 h [2] was 318 µg/mL (≈ 719 µM) and the CC50 [3] was greater than 10 nM. For the same molecule, the solubility thermodynamic at 24 h [4] was 318 µg/mL (≈ 719 µM) and the selectivity ratio [5] was greater than 16.9.
`C[C@@H]1CCO[C@H]2Cn3cc(C(=O)NCc4ccc(F)nc4F)c(=O)c(O)c3C(=O)N12` showed an EC50 [1, 21] of 5.15 nM, a solubility thermodynamic at 24 h [2] of 57 µg/mL (≈ 136 µM) and a CC50 [3] greater than 10 nM. For the same molecule, the solubility thermodynamic at 24 h [4] was 80 µg/mL (≈ 190 µM) and the selectivity ratio [5] was greater than 1.9.
Work on `C[C@H]1CO[C@@H]2Cn3cc(C(=O)NCc4ccc(F)nc4F)c(=O)c(O)c3C(=O)N12` yielded a Tmax [6] of 4.8 min, a remaining at 24 h, 1 µM [7] of 84% and a remaining at 24 h, 1 µM [8] of 83.8%. The EC50 ([1]; cem-ss) was 0.24 nM, the bioavailability [9] was 17.5% and the solubility thermodynamic at 24 h [2] was 269 µg/mL (≈ 662 µM). It also gave an IC50 (Cytochrome P450 3A4) greater than 10000 nM, a concentration at 8 h [10] of 8620 ng/mL and an IC50 (Cytochrome P450 2C8) greater than 10000 nM. The IC50 (Cytochrome P450 2C9) was greater than 10000 nM, the IC50 (Cytochrome P450 2D6) was greater than 10000 nM and the CC50 [3] was greater than 10 nM. It also gave a k el at 24 h [11] of 1.11e-05 s⁻¹, a concentration at 8 h [12] of 7910 ng/mL and an IC50 (Cytochrome P450 2C19) greater than 10000 nM. For the same molecule, the concentration at 24 h [13] was 4440 ng/mL, the fraction unbound at 4 h, 1 µM [14] was 0.011 and the solubility thermodynamic at 24 h [4] was 232 µg/mL (≈ 571 µM). It also gave a remaining at 24 h, 1 µM [15] of 95%, a remaining at 24 h, 1 µM [16] of 94.5% and a Tmax [17] of 3 h. For the same molecule, the IC50 (Cytochrome P450 1A2) was greater than 10000 nM, the concentration at 24 h [18] was 5430 ng/mL and the k el at 24 h [19] was 8.33e-06 s⁻¹. For the same molecule, the “Ratio CC50/EC50” value [5] was greater than 41.7 and the fraction unbound at 4 h, 1 µM [20] was 0.001.
Molecule `C[C@H]1CO[C@@H]2Cn3cc(C(=O)NCc4ncc(F)cc4F)c(=O)c(O)c3C(=O)N12` has a solubility thermodynamic at 24 h [2] of 131 µg/mL (≈ 322 µM) and a solubility thermodynamic at 24 h [4] of 196 µg/mL (≈ 482 µM).
Work on `C[C@H]1CO[C@@H]2Cn3cc(C(=O)NCc4cccc5cccnc45)c(=O)c(O)c3C(=O)N12` yielded an EC50 [1, 21] of 2.17 nM, a solubility thermodynamic at 24 h [2] of 10 µg/mL (≈ 23.8 µM) and a CC50 [3] greater than 10 nM. It also gave a solubility thermodynamic at 24 h [4] of 6 µg/mL (≈ 14.3 µM) and a selectivity ratio [5] greater than 4.6.
Molecule `C[C@H]1CO[C@@H]2Cn3cc(C(=O)NCc4ccnc5ccccc45)c(=O)c(O)c3C(=O)N12` has a solubility thermodynamic at 24 h [2] of 31 µg/mL (≈ 73.7 µM) and a solubility thermodynamic at 24 h [4] of 8 µg/mL (≈ 19 µM).
For `C[C@H]1CO[C@@H]2Cn3cc(C(=O)NCc4c(F)cncc4F)c(=O)c(O)c3C(=O)N12`, the EC50 [1, 21] was 2.63 nM, the solubility thermodynamic at 24 h [2] was 347 µg/mL (≈ 854 µM) and the CC50 [3] was greater than 10 nM. For the same molecule, the solubility thermodynamic at 24 h [4] was 380 µg/mL (≈ 935 µM) and the selectivity ratio [5] was greater than 3.8.
`C[C@H]1CO[C@@H]2Cn3cc(C(=O)NCc4cccs4)c(=O)c(O)c3C(=O)N12` showed an EC50 [1, 21] of 1.44 nM, a solubility thermodynamic at 24 h [2] of 33 µg/mL (≈ 87.9 µM) and a CC50 [3] greater than 10 nM. The solubility thermodynamic at 24 h [4] was 24 µg/mL (≈ 63.9 µM) and the selectivity ratio [5] was greater than 6.9.
